According to PMC10900215 (JACS Au, 2024):
Several values for one entry are separate records, joined by “and”; a condition that tells them apart may be missing. Equal values may be shown once. Entries after “also recorded” stand apart in the source; their conditions may differ.

How the values were obtained:
[1] = target: PRDM9 (Homo sapiens, UniProt Q9NQV7); test: Protein methyltransferases selectivity profile; type: biochemical; settings: control compound
Excerpt: (§1) Remaining activity [%][a]
(§2) Methyltransferase Control IC50 (M) Control […]
(§3) concerning the buffer solution containing DMSO. The closer to 100% these values are, the weaker the […]
(§4) Table S2. Hook curve amplitudes derived from the TR-FRET ternary complex formation assay with all compounds in the paper. n = number of independent measurements (biological replicates).
(§5) Compound amplitude n Compound amplitude n […]

[2] = target: T1, ternary complex CRBN/PROTAC/METTL3–14 (Homo sapiens, UniProt Q86U44+Q96SW2); test: FRET-based ternary complex formation assay (TCFA); type: binding
T1 construct: methyltransferase domains (MTD) of METTL3 (residues 354–580); His6 (N, cleaved yes); made in house; host or cells: METTL3-MTD/METTL14-MTD: baculovirus/Sf9; CRBN-TBD: E. coli Rosetta (DE3), co-expressed with BirA
T1 sequence (Q86U44 354-580): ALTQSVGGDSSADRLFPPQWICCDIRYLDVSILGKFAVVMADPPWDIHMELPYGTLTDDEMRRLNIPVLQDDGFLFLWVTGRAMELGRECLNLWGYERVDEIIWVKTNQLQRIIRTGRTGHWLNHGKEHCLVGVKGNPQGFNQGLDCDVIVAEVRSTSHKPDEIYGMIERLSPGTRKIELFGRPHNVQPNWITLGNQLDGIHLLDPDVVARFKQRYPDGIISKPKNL
T1 sequence (Q9HCE5 107-395 partner limits assumed): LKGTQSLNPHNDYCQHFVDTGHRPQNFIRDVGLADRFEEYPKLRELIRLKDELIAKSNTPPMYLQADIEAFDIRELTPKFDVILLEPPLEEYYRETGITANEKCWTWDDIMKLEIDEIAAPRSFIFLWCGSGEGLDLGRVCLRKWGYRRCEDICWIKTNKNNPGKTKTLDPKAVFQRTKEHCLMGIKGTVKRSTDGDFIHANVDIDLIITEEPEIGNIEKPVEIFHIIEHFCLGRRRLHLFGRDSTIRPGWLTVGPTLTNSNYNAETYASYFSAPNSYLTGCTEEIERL
T1 sequence (Q96SW2 318-442): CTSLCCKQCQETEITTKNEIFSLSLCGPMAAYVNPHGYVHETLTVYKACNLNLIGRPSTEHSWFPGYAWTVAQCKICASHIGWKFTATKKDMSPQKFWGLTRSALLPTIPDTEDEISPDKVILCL
In short: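 HTRF/TR-FRET measurement of PROTAC-induced complex between GST-tagged METTL3–14 and biotinylated CRBN^TBD-Avi (10 nM final) with 0.8 nM Eu^3+ anti-GST antibody, in 50 mM HEPES pH 7.5, 150 mM NaCl, 0.1% BSA, 100 mM KF. Emission ratio used; ECmax and Hook-curve amplitude taken from Gaussian fit or highest-signal data point.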

[3] = target: T2, METTL3-14 (Homo sapiens, UniProt Q86U44); test: Cellular degradation assay (Western blot), METTL3 and/or METTL14 (METTL3–14) in MOLM-13; type: cell-based; parameters: METTL3–14 degradation up to 70% of the endogenous level; endogenous in cells; host or cells: MOLM-13, KASUMI-1, THP-1, NOMO-1; settings: for degradation of METTL3 and/or METTL14: MOLM-13, 2 μM, 24 h, Western blot
Method: MOLM-13, NOMO-1, THP-1, Kasumi-1, PC3, and DU145 cell lines were obtained from DSMZ-German Collection of Microorganisms and Cell Cultures GmbH. […] All cell lines were tested negative for mycoplasma contamination (PCR-based assay by Microsynth, Switzerland).
METTL3 (and METTL14) protein degradation was monitored by Western blot. Cells were treated with the indicated concentration of PROTACs or DMSO control (0.1% (v/v)) for 24h, 37 °C with 5% CO2. […] After SDS-PAGE, proteins were transferred to a nitrocellulose membrane, blocked (with 5% milk, 0.5% BSA in TBST buffer), and incubated overnight with primary antibodies. […] Densitometry was performed in Image Studio Lite software and analyzed in GraphPad Prism 9.
Target sequence in this assay (Q86U44 2-580 limits assumed): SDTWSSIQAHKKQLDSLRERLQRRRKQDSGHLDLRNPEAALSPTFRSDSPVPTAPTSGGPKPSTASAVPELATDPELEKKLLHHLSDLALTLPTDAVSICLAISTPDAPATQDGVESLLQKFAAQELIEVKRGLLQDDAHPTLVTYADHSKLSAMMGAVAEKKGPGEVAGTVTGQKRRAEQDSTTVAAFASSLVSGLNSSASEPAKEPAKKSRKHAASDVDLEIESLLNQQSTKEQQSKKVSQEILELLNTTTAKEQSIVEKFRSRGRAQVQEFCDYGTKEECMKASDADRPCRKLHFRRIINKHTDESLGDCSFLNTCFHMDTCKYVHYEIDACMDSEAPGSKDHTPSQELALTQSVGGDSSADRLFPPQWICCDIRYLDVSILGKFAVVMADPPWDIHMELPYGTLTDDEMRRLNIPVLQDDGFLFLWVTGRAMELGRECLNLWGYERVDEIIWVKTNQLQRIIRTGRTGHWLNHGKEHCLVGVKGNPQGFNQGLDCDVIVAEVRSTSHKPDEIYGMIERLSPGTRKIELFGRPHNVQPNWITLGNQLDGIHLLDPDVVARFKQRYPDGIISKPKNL
Target sequence in this assay (Q9HCE5 whole entry partner): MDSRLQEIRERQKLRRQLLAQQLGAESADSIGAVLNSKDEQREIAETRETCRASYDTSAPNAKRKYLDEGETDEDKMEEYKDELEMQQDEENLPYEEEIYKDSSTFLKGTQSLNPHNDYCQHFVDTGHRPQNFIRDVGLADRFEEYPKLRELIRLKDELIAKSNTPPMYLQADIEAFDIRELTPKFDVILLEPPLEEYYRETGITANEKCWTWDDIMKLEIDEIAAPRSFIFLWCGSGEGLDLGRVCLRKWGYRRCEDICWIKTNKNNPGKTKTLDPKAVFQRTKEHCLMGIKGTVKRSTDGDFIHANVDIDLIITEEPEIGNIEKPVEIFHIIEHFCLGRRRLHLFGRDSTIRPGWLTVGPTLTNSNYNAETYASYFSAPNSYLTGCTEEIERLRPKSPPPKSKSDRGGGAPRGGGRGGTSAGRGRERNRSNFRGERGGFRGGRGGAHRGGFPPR

[4] = test system: PC3 cell line; test: Cell viability assay (CellTiter-Glo) on PC3; type: cell-based, human
Method: MOLM-13, NOMO-1, THP-1, Kasumi-1, PC3, and DU145 cell lines were obtained from DSMZ-German Collection of Microorganisms and Cell Cultures GmbH. Cells were cultured in RPMI 1640 medium (11875093, Thermo Fisher Scientific) containing 10% FBS (16140071, Thermo Fisher Scientific) and 1% penicillin-streptomycin (15140122, Thermo Fisher Scientific) in 5% CO2 at 37 °C in a humidified incubator, with maintained cell densities at 0.5–1 × 10^6 cells/mL. All cell lines were tested negative for mycoplasma contamination (PCR-based assay by Microsynth, Switzerland).
Cells were seeded in white clear-bottom 96-well plates at a density of 6–20 × 10^3 cells/well in 50 μL of the complete RPMI medium and treated with 50 μL of increasing concentrations of the indicated compounds dissolved in DMSO (final concentration of compounds 0.01–10 μM) or DMSO only as a negative control (0.01% (v/v)) and incubated for 72 h at 37 °C with 5% CO2. Cell viability was determined using a CellTiter-Glo luminescent cell viability assay (Promega) based on the detection of ATP according to the manufacturer’s instructions. 100 μL of the reagent was added to each well and incubated for 10 min at room temperature. The luminescence was recorded using a Tecan Infinite […] M1000 microplate reader from the top. Background luminescence value was obtained from wells containing the CellTiter-Glo reagent and medium without cells. The resulting data was analyzed in GraphPad Prism 9.

[5] = Cell viability assay (CellTiter-Glo) on MOLM-13; type: cell-based; settings: human, MOLM-13 cells, average of two biological replicates
In short: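 MOLM-13 AML cells grown in RPMI 1640 with 10% FBS at 37 °C, 5% CO2. Viability read as ATP luminescence by CellTiter-Glo after 10 min at room temperature, with background from cell-free medium wells subtracted.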

[6] = target: T3, METTL3 (Homo sapiens, UniProt Q86U44); test: Cellular degradation assay (Western blot), METTL3 in MOLM-13; type: cell-based
T3 construct: METTL3–14 degradation up to 70% of the endogenous level; endogenous in cells; host or cells: MOLM-13, PC3, DU145
T3 sequence (Q86U44 2-580 limits assumed): as the sequence (Q86U44 2-580 limits assumed) above
T3 sequence (Q9HCE5 whole entry partner): as the sequence (Q9HCE5 whole entry partner) above
In short: (§6)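 Treat cells 24h with PROTAC (vehicle: 0.1% DMSO); lyse in RIPA with protease inhibitors; run SDS-PAGE and immunoblot METTL3/METTL14; quantify bands by densitometry.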

[7] = test system: METTL14; test: Cellular degradation assay (Western blot), METTL14 in MOLM-13; type: cell-based, human; settings: MOLM-13, 24 h, 2 μM compound
In short: as §6

[8] = target: His-GST-METTL3^MTD-METTL14^MTD (human) (UniProt Q86U44)
Chain of His-GST-METTL3^MTD-METTL14^MTD (human) (Q86U44 354-580, chain 1 of 2): as the sequence (Q86U44 354-580) above
Chain of His-GST-METTL3^MTD-METTL14^MTD (human) (chain, as listed by the source, chain 2 of 2): as the sequence (Q9HCE5 107-395 partner limits assumed) above

[9] = target: T4, METTL3 (Homo sapiens, UniProt Q86U44+Q96SW2); test: In vitro ubiquitination assay, METTL3; type: biochemical; settings: 2, 8, and 32 μM, 30 °C, 2 h
T4 construct: Human full-length METTL3-METTL14 was expressed and purified as described above; Human full-length cereblon-DDB1 and 6xHis-CUL4A-6xHis-RBX1 were coexpressed; StrepII (N); GFP (N); TEV site (N); made in house; host or cells: baculovirus/Sf9 insect cells (METTL3-METTL14, cereblon-DDB1, CUL4A-RBX1)
Method: For the cell-free in vitro ubiquitination of METTL3-METTL14 purified E1, E2, ubiquitin, CUL4A-RBX1, Cereblon-DDB1, and METTL3-METTL14 were used. Human full-length METTL3-METTL14 was expressed and purified as described above. […] Purified recombinant human UBE1 E1 (E-305–025) was purchased from R&D Systems, UbcH5a E2 (23–029) from Merck and ubiquitin (SBB-UP0013) from South Bay Bio. For the ubiquitination reaction, components were mixed to final concentrations of 0.06 μM UBE1, 1.96 μM UbcH5a, 39 μM ubiquitin, 0.33 μM CUL4A-RBX1, 0.33 μM Cereblon-DDB1, 0.5 μM METTL3-METTL14, and different concentrations of compound 14 or me-14 (0, 2, 8, or 32 μM) in reaction buffer (50 mM Tris-HCl pH 7.6, 5 mM MgCl2, 0.2 mM CaCl2, 1 mM DTT, 100 mM NaCl, 0.01% BSA, 0.01% Triton X-100). The final reaction volume was 15 μL. After the addition of 2 mM ATP (or the equal volume of water for the control without ATP), the reaction mixture was incubated for 2 h at 30 °C. […] The signals were quantified by using the Image Studio Lite software. To determine the percentage of ubiquitinated METTL3, the fraction of unmodified METTL3 was calculated by dividing the signal of the band assigned to unmodified METTL3 by the signal of the area containing both the unmodified and (poly)ubiquitinated METTL3 and normalizing to the control without ATP. […]

[10] = target: T3, METTL3; test: Cellular thermal shift assay (CETSA) in MOLM-13, METTL3; type: cell-based; settings: MOLM-13, 54 °C
Method: One million of MOLM-13 cells were suspended in 100 μL of PBS (10010023, Thermo Fisher Scientific) containing 2× protease inhibitor cocktail (11697498001, Roche), for each condition tested. Cells were incubated with compounds or DMSO control (1% (v/v)) for 1 h at 37 °C. They were then heat treated at 54 °C in a thermoblock for 3 min, followed by cooling to room temperature (3 min). Next, samples were lysed by threefreeze–thaw cycles in liquid nitrogen and centrifuge at 16000 g for 30 min, 4 °C. Equal volumes of control and tested samples (12 μL) were analyzed by Western blot. The changes in the amount of METTL3 protein (after normalization for β-actin and/or GAPDH) were monitored by performing densitometry in Image Studio Lite software and analyzed in GraphPad Prism 9.

[11] = target: T5, Cereblon (CRBN) (Homo sapiens, UniProt Q96SW2); test: Cellular thermal shift assay (CETSA) in MOLM-13, Cereblon; type: cell-based; settings: MOLM-13, 54 °C
T5 construct: endogenous in cells; host or cells: MOLM-13
T5 sequence (Q96SW2 whole entry): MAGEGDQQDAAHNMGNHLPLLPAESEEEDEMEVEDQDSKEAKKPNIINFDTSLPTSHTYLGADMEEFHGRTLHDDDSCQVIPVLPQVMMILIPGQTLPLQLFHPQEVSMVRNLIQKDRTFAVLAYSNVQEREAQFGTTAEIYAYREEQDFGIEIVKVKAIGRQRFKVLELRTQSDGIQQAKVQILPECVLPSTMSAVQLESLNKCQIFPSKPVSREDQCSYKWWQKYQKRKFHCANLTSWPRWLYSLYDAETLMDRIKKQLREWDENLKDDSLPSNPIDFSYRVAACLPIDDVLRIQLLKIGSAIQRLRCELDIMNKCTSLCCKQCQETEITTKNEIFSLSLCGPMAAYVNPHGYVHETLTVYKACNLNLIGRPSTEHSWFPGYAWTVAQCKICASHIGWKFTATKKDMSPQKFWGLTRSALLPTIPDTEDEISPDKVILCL

[12] = target: SMYD3 (Homo sapiens, UniProt Q9H7B4); test: Protein methyltransferases selectivity profile; type: biochemical; settings: control compound
Excerpt: as §1, §2, §3, §4, §5

[13] = target: T2, METTL3-14; test: Protein methyltransferases selectivity profile; type: biochemical
Excerpt: as §1, §2, §3, §4, §5

[14] = target: SETD2 (Homo sapiens, UniProt Q9BYW2); test: Protein methyltransferases selectivity profile; type: biochemical; settings: control compound
Chain of SETD2 (Q9BYW2 whole entry, species assumed): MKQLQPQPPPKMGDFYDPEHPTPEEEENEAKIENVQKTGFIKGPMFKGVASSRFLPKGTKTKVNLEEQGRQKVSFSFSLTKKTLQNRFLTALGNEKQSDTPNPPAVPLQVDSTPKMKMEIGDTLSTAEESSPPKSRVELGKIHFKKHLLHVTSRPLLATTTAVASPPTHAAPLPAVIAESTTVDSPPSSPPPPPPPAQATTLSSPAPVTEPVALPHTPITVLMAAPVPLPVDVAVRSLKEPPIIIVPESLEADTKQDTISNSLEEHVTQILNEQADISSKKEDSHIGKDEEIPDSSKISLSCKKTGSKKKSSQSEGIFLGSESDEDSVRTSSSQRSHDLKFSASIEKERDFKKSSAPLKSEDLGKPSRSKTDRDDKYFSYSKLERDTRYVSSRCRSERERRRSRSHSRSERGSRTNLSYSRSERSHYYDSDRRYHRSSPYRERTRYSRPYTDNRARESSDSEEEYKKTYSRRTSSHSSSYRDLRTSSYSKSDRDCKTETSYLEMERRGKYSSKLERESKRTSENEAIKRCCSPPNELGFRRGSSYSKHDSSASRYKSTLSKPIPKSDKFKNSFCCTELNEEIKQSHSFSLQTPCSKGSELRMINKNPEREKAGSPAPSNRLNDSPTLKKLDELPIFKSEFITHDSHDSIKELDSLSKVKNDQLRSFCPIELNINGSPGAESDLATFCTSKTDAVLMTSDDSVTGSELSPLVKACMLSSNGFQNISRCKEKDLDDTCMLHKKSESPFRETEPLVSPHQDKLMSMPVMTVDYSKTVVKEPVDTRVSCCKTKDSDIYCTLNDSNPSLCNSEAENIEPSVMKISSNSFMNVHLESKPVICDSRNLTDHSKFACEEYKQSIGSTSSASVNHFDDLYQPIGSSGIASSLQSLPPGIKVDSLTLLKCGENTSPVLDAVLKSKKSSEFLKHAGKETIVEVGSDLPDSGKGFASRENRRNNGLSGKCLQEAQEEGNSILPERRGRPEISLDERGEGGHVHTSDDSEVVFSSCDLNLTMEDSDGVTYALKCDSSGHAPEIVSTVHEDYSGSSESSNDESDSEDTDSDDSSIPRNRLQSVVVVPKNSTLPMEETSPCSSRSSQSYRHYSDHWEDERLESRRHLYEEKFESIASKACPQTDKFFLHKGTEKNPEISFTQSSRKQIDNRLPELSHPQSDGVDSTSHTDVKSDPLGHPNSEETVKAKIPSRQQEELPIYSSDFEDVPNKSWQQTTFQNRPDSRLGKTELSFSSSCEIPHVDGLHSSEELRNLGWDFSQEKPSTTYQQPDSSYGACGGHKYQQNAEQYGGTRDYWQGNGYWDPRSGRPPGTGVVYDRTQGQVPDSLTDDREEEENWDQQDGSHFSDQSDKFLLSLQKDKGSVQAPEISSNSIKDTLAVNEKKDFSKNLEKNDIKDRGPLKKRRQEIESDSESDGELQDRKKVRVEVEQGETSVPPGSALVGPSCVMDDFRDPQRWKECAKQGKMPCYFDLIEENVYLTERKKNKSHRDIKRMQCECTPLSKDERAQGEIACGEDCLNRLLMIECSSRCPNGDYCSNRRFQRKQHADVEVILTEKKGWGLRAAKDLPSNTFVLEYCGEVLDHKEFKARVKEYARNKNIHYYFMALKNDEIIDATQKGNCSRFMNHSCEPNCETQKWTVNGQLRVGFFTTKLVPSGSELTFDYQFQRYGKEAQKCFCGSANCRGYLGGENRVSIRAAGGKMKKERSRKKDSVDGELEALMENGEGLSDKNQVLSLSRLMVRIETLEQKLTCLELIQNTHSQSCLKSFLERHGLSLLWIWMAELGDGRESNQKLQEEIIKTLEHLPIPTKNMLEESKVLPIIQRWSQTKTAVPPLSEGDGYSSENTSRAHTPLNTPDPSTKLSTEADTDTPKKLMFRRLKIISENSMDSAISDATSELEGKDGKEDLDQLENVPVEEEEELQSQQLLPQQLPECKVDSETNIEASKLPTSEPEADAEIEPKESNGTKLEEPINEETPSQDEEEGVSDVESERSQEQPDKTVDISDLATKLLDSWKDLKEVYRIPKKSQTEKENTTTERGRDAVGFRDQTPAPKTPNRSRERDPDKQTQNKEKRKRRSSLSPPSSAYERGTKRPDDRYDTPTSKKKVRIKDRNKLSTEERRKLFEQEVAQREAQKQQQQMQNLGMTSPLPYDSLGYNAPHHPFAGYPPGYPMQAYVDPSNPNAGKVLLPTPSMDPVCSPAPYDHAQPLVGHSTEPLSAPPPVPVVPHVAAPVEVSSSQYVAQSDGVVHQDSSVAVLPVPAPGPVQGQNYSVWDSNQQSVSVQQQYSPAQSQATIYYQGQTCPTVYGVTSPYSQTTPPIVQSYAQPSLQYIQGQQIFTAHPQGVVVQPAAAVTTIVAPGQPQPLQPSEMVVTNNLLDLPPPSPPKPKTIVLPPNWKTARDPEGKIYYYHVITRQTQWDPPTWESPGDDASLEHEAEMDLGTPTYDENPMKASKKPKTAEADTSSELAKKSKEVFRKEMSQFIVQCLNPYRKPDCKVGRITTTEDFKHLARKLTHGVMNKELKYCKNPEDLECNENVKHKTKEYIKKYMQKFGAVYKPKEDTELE
Excerpt: as §1, §2, §3, §4, §5

Compound: CN1C(=O)[C@@]23C[C@]4([C@]56C[C@@]78SS[C@@](CO)(C(=O)N7[C@H]5Nc5ccccc56)N(C)C8=O)c5ccccc5N[C@@H]4N2C(=O)[C@]1(CO)SS3 [Chaetocin]
- IC50 [1]: 905 nM

Compound: CNc1cc(N2CCC3(CC2)CN(c2cc(F)c(CN4CCC(C)(C)CC4)cc2F)CC(=O)N3)ncn1 [UZH2, reference compound]
- activity / signal in the ternary complex formation assay [2]: no activity
- METTL3–14 levels ([3]; MOLM-13, 10 μM UZH2 control without PROTAC): elevated levels of METTL3–14
- antiproliferative effect [4]: not

Compound: CC1(C)CCN(Cc2cc(F)c(N3CC(=O)NC4(CCN(c5cc(NCCN6CCN(c7cnc(N8CCN(C(=O)CCCNc9cccc%10c9C(=O)N(C9CCC(=O)NC9=O)C%10=O)CC8)nc7)CC6)ncn5)CC4)C3)cc2F)CC1 (stereo not shown) [Compound 33]
- viability at 72 h, 0.6 µM ([5]; 0.6 µM): 92.1%
- viability at 72 h, 1.25 µM ([5]; 1.25 µM): 90.9%
- viability at 72 h, […] ([5]; 2.5 µM): 95.3%
- viability at 72 h, 5 µM ([5]; 5 µM): 97.7%
- viability at 72 h, 10 µM ([5]; 10 µM): 89.6%
- TCFA amplitude (mean ± SEM) ([2]; Hook curve amplitude, fraction of the maximum of compound 16): 0.8 ± 0.1
- ECmax (nM) ± SD ([2]; PROTAC concentration at the maximum of the signal in the TCFA): 70 ± 10 nM
- MOLM-13 West. blot at 24h 2 μM comp conc. Degradation (%) of METTL3 ([6]; MOLM-13, 24 h, 2 μM compound): 44% and 44 ± 6%
- MOLM-13 West. blot at 24h 2 μM comp conc. Degradation (%) of METTL14 [7]: 51 ± 19%
- degradation of METTL3 and/or METTL14 [3]: at least 50%

Compound: CRBN^TBD-Avi(biotin) (from UniProt Q96SW2 318-442) (domain or fragment)
- degradation of METTL3 and METTL14 in MOLM-13 cells (Western blot) with PROTAC 30 at five concentrations; Hook effect [8]: 60%
- degradation of METTL3 in MOLM-13 cells (Western blot) with PROTAC 14 at five concentrations; Hook effect [8]: 50%

Compound: CN1C(=O)CCC(N2C(=O)c3cccc(NCCCC(=O)NCc4cccc(CNc5cc(N6CCC7(CC6)CN(c6cc(F)c(CN8CCC(C)(C)CC8)cc6F)CC(=O)N7)ncn5)c4)c3C2=O)C1=O (stereo not shown) [me-14]
- ubiquitination of METTL3 compared to the control without compound [9]: does not increase
- METTL3 levels ([6]; MOLM-13, 10 μM): increased METTL3 levels
- stabilization of METTL3 (CETSA) [10]: stabilize METTL3 in a concentration-dependent manner; also recorded: stabilization of METTL3
- degradation of METTL3 and/or METTL14 [3]: did not show any METTL3–14 degradation
- degradation of METTL3 and METTL14, concentration dependence ([3]; MOLM-13, five concentrations): no degradation
- stabilization of Cereblon (CETSA) [11]: not of CRBN

Compound: Nc1ncnc2c1ncn2[C@@H]1O[C@H](CSCC[C@H](N)C(=O)O)[C@@H](O)[C@H]1O [SAH, S-(5’-adenosyl)-L-homocysteine]
- IC50 [12]: 8480 nM
- IC50 [13]: 153 nM
- IC50 [14]: 1380 nM
